# Data taken from paper PMC10459044, “Anticholinesterase and Serotoninergic Evaluation of Benzimidazole–Carboxamides as Potential Multifunctional Agents for the Treatment of Alzheimer’s Disease” (Pharmaceutics, 2023).
# Entries after “also recorded” stand apart in the source; their conditions may differ. Like-named read-outs stand apart in the source and are kept apart here.
# Legend:
# human AChE = biological target: T1, human AChE (Homo sapiens, UniProt P22303); assay: biochemical; type: biochemical; conditions: for Type of Inhibition / thermodynamic cooperativity factor α: human AChE; for Type of Inhibition: Lineweaver–Burk plots; for thermodynamic cooperativity factor α: mixed inhibition model
# T1 construct: human erythrocyte AChE (Biomed, Auckland, New Zealand); purchased Biomed, Auckland, New Zealand; host or cells: human erythrocytes (natural source)
# Description: (§1) The biochemical analysis of the inhibitory ability of the drugs against AChE and BChE was performed using a microplate modification of the Ellman method. The following reagents were used: 5,5′-dithio-bis-2-nitrobenzoic acid (DTNB, Sigma-Aldrich, St. Louis, MO, USA), acetylthiocholine (ATCh, Sigma-Aldrich), butyrylthiocholine (BTCh, Sigma-Aldrich), human erythrocyte AChE (Biomed, Auckland, New Zealand), human plasma BChE (Mechnikov Scientific Research Institute of Vaccines and Serums, St. Petersburg, Russia), phosphate-buffered saline (PBS; pH 7.2; Biolot, […]) and distilled water (pH 5.97, Biolot).
# (§2) AChE and BChE were dissolved in PBS to obtain solutions of 1 mg/mL. Due to its high activity, human BChE was used at a 1:30 dilution. Solutions of the studied compounds were prepared with serial dilutions; their concentration in the reaction mixture was in a range from 0 to 300 μM. Double-distilled water, ethanol and dimethyl sulfoxide (DMSO, up to 15% of the total solvent volume) were used as solvents. When using DMSO or ethanol, an additional control was performed to assess the effect of the solvent itself. Protein (AChE of BChE) was incubated for 5 min at 37 °C and then the coloring solution was added, which contained a 2 mM freshly prepared DTNB solution and the substrate (ATCh/BTCh) in the concentration range of 200–800 μM. The kinetics were recorded for 15 min at 37 °C at a wavelength of 405 nm. Activity (μM × min^−1) was calculated using the molar extinction coefficient 0.01415 μmol^−1 × cm^−1: (V/ε × l × v) × (ΔE/Δt), where V is the volume of the analyzed mixture (μL); v is the volume of the enzyme solution (μL); ΔE/Δt is the change in extinction in 1 min; l is the thickness of the absorbing layer (cm); and ε is the coefficient of molar extinction of […]. Each measurement was repeated three times.
# (§3) The type of inhibition was evaluated using Lineweaver–Burk plots. The dissociation constant of the enzyme-inhibitor complex (Ki), the maximum rate (Vmax) and thermodynamic cooperativity factor α were calculated using the Graphpad Prism 8.0 program (GraphPad Software Inc., San Diego, CA, USA) according to the model “enzymatic kinetics-inhibition—type of inhibition”.
# human BChE = biological target: T2, human BChE (Homo sapiens, UniProt P06276); assay: Inhibition of human plasma BChE, microplate Ellman method; type: biochemical; conditions: for Type of Inhibition: human BChE, Lineweaver–Burk plots; for Ki: human plasma BChE (1:30 dilution), BTCh substrate, 37 °C
# T2 construct: human plasma BChE (Mechnikov Scientific Research Institute of Vaccines and Serums, St. Petersburg, Russia); purchased Mechnikov Scientific Research Institute of Vaccines and Serums, St. Petersburg, Russia; host or cells: human plasma (natural source)
# Description: as §1, §2, §3
# 5-HT4R = conditions: read-out: EC50 relative to 5-HT4R; cited from earlier work
# [1] = human erythrocyte AChE, ATCh substrate, 37 °C, read-out: Ki
# T2 sequence (P06276 29-602): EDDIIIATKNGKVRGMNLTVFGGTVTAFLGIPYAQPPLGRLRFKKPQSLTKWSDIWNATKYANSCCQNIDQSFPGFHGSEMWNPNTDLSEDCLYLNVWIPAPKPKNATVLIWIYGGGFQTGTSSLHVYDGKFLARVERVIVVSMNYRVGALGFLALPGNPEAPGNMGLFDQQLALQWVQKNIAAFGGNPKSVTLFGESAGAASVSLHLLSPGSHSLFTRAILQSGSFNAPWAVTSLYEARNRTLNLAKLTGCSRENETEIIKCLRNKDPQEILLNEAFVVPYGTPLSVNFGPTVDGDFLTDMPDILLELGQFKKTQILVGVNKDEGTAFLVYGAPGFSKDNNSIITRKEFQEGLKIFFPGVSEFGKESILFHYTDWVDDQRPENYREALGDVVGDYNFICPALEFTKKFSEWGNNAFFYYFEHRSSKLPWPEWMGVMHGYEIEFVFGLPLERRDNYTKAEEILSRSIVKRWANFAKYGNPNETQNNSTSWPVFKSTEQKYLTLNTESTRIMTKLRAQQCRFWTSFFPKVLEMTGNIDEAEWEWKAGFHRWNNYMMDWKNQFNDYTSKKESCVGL
# T1 sequence (P22303 32-617 isoform P22303-2 limits assumed): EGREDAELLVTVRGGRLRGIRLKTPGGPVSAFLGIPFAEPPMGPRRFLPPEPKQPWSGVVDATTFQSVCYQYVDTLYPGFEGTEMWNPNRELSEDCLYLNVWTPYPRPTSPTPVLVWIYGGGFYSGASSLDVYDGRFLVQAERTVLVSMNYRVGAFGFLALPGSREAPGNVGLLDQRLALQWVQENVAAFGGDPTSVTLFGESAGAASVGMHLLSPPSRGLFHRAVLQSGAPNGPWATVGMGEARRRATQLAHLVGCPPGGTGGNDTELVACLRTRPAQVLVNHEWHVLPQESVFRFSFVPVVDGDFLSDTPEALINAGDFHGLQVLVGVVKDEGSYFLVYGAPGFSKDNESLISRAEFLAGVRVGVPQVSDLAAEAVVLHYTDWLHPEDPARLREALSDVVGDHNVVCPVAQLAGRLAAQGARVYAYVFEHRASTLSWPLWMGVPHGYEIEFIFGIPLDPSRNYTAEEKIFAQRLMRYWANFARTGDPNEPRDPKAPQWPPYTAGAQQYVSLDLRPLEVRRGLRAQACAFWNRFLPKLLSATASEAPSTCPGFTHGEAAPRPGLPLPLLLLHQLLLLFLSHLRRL
Structure (SMILES),Type of Inhibition (human AChE),thermodynamic cooperativity factor α (human AChE),Ki (human AChE; [1]) [µM],Type of Inhibition (human BChE),Ki (human BChE; read-out: Ki) [µM],Ki (human AChE) [µM],AChE inhibition less effective than compound 24 (ratio of Ki) (human AChE; compound 13 vs compound 24) [times],Ki (human BChE),EC50 (5-HT4R) [µM]
CN(C)CCNC(=O)n1c(=O)n(C2CC2)c2ccccc21 [Compound 28],mixed,12.6,138,non-competitive,28.1,,,,
"CCN(CC)CCNC(=O)n1c(=O)n(C(C)(C)C)c2ccccc21.Cl [Compound 13, N-[2-(diethylamino)ethyl]-2-oxo-3-(tert-butyl)-2,3-dihydro-1H-benzimidazole-1-carboxamide hydrochloride]",strictly competitive,,,non-competitive,1.7,36.1,~300,,
CC(C)n1c(=O)n(C(=O)N2CCN(C(c3ccccc3)c3ccc(Cl)cc3)CC2)c2ccccc21 (stereo not drawn) [Compound 24],non-competitive,,0.13,no inhibition,,,,no inhibitory effect; also recorded: did not demonstrate inhibitory properties; also recorded: no inhibition,
"CC(C)n1c(=O)n(C(=O)NC2CC3CCC(C2)N3C)c2ccccc21 (stereo not drawn) [Compound 15, reference compound]",mixed,6.6,127,competitive,9.7,,,,0.018
CC(C)n1c(=O)n(C(=O)NC2CC3CCC(C2)N3C)c2cc(C(F)(F)F)ccc21 (stereo not drawn) [Compound 16],mixed,5.1,31,competitive,21.3,,,,
CCN(CC)CCNC(=O)n1c(=O)n(C(C)C)c2ccc(C(F)(F)F)cc21 [Compound 23],mixed,3.1,60.5,non-competitive,4.5,,,,
CCN(CC)CCNC(=O)n1c(=O)n(C(C)C)c2ccccc21 [Compound 22],strictly competitive,,97.1,competitive,15.2,,,,
CCN(CC)CCNC(=O)n1c(=O)n(C2CC2)c2ccccc21 [Compound 27],mixed,10.9,132,competitive,16.2,,,,
